Source: US8975406B2, “Compound useful for the treatment of degenerative and inflammatory diseases” (Galapagos N.V., priority 2011, dated 2015)

What was measured:
[1] = target: T1, Recombinant human JAK3 catalytic domain (Homo sapiens, UniProt P52333); assay: JAK3 inhibition assay; format: biochemical; details: polyGT substrate, 33P-gamma-ATP filter assay, 1 μM ATP
T1 construct: catalytic domain (amino acids 795-1124; catalog number 08-046); purchased Carna Biosciences 08-046
In short: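 Kinase domain aa 795-1124 with polyGT substrate, 1 μM ATP plus ^33P-γ-ATP, pH 7.5 Tris buffer, 1% DMSO; 45 min at 30° C. Filter-bound radioactivity counted, inhibition normalised to vehicle and 10 μM staurosporine. IC50 from 10-point 1/5 dilutions, top concentration usually 20 μM.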

[2] = system: JAK-STAT signalling in HeLa cells; assay: JAK-STAT signalling assay (pSTAT1(2)-luciferase reporter, OSM-triggered HeLa cells); format: cell-based; details: human OSM 33 ng/mL
Protocol: HeLa cells were maintained in Dulbecco's Modified Eagle's Medium (DMEM) containing 10% heat inactivated fetal calf serum, 100 U/mL penicillin and 100 μg/mL streptomycin. HeLa cells were used at 70% confluence for transfection. 20,000 cells in 87 μL cell culture medium were transiently transfected with 40 ng pSTAT1(2)-luciferase reporter (Panomics), 8 ng of LacZ reporter as internal control reporter and 52 ng of pBSK using 0.32 μL Jet-PEI (Polyplus) as transfection reagent per well in 96-well plate format. After overnight incubation at 37° C., 5% CO2, transfection medium was removed. 81 μL of DMEM+1.5% heat inactivated fetal calf serum was added. 9 μL compound at 10× concentration was added for 60 min and then 10 μL of human OSM (Peprotech) at 33 ng/mL final concentration.
All compounds were tested in duplicate starting from 20 μM followed by a ⅓ serial dilution, 8 doses in total (20 μM-6.6 μM-2.2 μM-740 nM-250 nM-82 nM-27 nM-9 nM) in a final concentration of 0.2% DMSO.
After overnight incubation at 37° C., 5% CO2 cells were lysed by adding 100 μL lysis buffer/well (PBS, 0.9 mM CaCl2, 0.5 mM MgCl2, 10% Trehalose, 0.05% Tergitol NP9, 0.3% BSA).
40 μL of cell lysate was used to read β-galactosidase activity by adding 180 μL β-Gal solution (30 μl ONPG 4 mg/mL+150 μL β-Galactosidase buffer (0.06 M Na2HPO4, 0.04 M NaH2PO4, 1 mM MgCl2)) for 20 min. The reaction was stopped by addition of 50 μL Na2CO3 1 M. Absorbance was read at 405 nm.
Luciferase activity was measured using 40 μL cell lysate plus 40 μL of Steadylite® as described by the manufacturer (Perkin Elmer), on the Envision (Perkin Elmer).
Omitting OSM was used as a positive control (100% inhibition). As negative control 0.5% DMSO (0% inhibition) was used. The positive and negative controls were used to calculate z′ and ‘percent inhibition’ (PIN) values. Percentage inhibition=((fluorescence determined in the presence of vehicle−fluorescence determined for sample with test compound present)divided by(fluorescence determined in the presence of vehicle−fluorescence determined for sample without trigger))*100.
PIN values were plotted for compounds tested in dose-response and EC50 values were derived.

Recombinant human JAK2 = target: T2, Recombinant human JAK2 (Homo sapiens, UniProt O60674); assay: JAK2 Ulight-JAK1 peptide assay; format: biochemical; details: Ulight-JAK1(tyr1023) peptide, 7.5 μM ATP
T2 construct: catalytic domain (amino acids 808-1132; catalog number PV4210); GST; purchased Invitrogen PV4210
T2 sequence (O60674 808-1132): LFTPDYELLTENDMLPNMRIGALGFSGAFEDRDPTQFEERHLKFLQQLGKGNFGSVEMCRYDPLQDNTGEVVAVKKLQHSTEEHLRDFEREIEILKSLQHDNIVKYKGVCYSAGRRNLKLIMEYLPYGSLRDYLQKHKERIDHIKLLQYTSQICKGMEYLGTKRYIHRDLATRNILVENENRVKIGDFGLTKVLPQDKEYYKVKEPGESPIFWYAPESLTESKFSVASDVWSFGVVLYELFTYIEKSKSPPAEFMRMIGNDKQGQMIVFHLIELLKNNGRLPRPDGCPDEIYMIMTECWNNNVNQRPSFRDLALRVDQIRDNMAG
In short: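 JAK2 catalytic domain ([…]), 0.0125 mU, with 25 nM Ulight-JAK1(tyr1023) peptide, 7.5 μM ATP, HEPES pH7.0, 60 min at room temperature; stopped with EDTA and Eu-anti-phosphotyrosine, TR-FRET read at 615 nm. Inhibition normalised to vehicle and 10 μM staurosporine; IC50 from 10-point ⅕ dilutions from 20 μM, 1% DMSO.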

T1 sequence (P52333 795-1124): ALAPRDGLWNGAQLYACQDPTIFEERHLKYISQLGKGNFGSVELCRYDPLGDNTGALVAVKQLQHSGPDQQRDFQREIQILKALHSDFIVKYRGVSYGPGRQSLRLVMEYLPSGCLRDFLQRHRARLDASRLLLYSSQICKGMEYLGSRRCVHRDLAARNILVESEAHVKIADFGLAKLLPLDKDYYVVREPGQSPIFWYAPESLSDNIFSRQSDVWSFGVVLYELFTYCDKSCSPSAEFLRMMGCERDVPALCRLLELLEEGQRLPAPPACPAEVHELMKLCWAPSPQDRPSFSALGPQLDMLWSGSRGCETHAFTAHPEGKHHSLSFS

| IC50 [1] [nM] | IC50 [2] [nM] | IC50 (Recombinant human JAK2) [nM] | SMILES |
| --- | --- | --- | --- |
| 0.01 to 100 | 101 to 500 | 0.01 to 100 | O=C(Nc1cc2c(-c3ccc(CN4CCS(=O)(=O)CC4)cc3)cccn2n1)C1CC1 [Compound 10, Cyclopropanecarboxylic acid {4-[4-(1,1-dioxo-thiomorpholin-4-ylmethyl)-phenyl]-pyrazolo[1,5-a]pyridin-2-yl}-amide] |
| 101 to 500 | 501 to 1000 | 0.01 to 100 | CC(=O)Nc1cc2c(-c3ccc(CC(=O)N4CC(F)(F)C4)cc3)cccn2n1 [Compound 34, N-(4-(4-(2-(3,3-difluoroazetidin-1-yl)-2-oxoethyl)phenyl)pyrazolo[1,5-a]pyridin-2-yl)acetamide] |
| 0.01 to 100 | > 1000 | 0.01 to 100 | COc1ccc(-c2cccn3nc(NC(=O)C4CC4)cc23)cc1 [Compound 1, N-(4-(4-methoxyphenyl)pyrazolo[1,5-a]pyridin-2-yl)cyclopropanecarboxamide] |
| 101 to 500 | > 1000 | 101 to 500 | CS(=O)(=O)N1CCN(Cc2ccc(-c3cccn4nc(NC(=O)C5CC5)cc34)cn2)CC1 [Compound 23, N-(4-(6-((4-(methylsulfonyl)piperazin-1-yl)methyl)pyridin-3-yl)pyrazolo[1,5-a]pyridin-2-yl)cyclopropanecarboxamide] |
| 101 to 500 | > 1000 | 0.01 to 100 | O=C(Nc1nn2cccc(-c3ccc(CN4CCS(=O)(=O)CC4)cc3)c2c1Br)C1CC1 [Compound 12, Cyclopropanecarboxylic acid {4-[4-(1,1-dioxo-thiomorpholin-4-ylmethyl)-phenyl]-3-bromo-pyrazolo[1,5-a]pyridin-2-yl}-amide] |
